Patent publication EP0145314A1, “Antifungal triazole compound” (IMPERIAL CHEMICAL INDUSTRIES PLC, priority 1983, dated 1985)

Key:
[1] = Teratogenicity / maternal toxicity in the rabbit; type: in vivo; settings: lowest dose at which impaired maternal weight gain was observed
Description: As indicated above, the compound of this invention has been found not to be teratogenic at doses up to the maternally toxic dose. In both the rabbit and the rat, the maternally toxic dose was taken to be the lowest dose at which impaired maternal weight gain was observed. In the rabbit, this dose was 10 mg./kg. and in the rat between 25 and 50 mg./kg.

[2] = system: Candida albicans and Trichophyton mentagrophytes var. quinkeanum; assay: Oral antifungal test in mice inoculated with Candida (vagina) and Trichophyton (back), minimum effective dose; type: in vivo; settings: 168 h; female mice, oral dosing twice on day 0 and once daily on days 1-4; skin lesions scored and vaginal samples cultured on day 7; read-out: minimum effective dose (MED)
Description: The following Monday (day 0) they are clipped on the back and then dosed orally with the test compound. They are then inoculated with Candida albicans in the vagina and Trichophyton mentagrophytes var. quinkeanum on the back, and then given a second dose of the same compound. Dosing is repeated once daily on days 1-4. On day 7 skin lesions are scored visually and vaginal samples taken for culture on agar. Groups of 5 mice are used and the compound is dosed initially at a level of 250 mg./kg. The dose is then reduced sequentially until a minimum effective dose (MED) is found. The MED for 2-(2-fluoro-4-trifluoromethylphenyl)-l,3-di(l,2,4-triazol-l-yl)-2-propanol in this test was 5 mg. per kg.

**Q.** For `OC(Cn1cncn1)(Cn1cncn1)c1ccc(C(F)(F)F)cc1F` [2-(2-fluoro-4-trifluoromethylphenyl)-l,3-di(l,2,4-triazol-l-yl)-2-propanol], which maternally toxic dose [1] is on record?
**A.** 10 mg/kg

**Q.** And the minimal effective dose [2]?
**A.** 5 mg/kg
